One block for each compound: values may come before it.
Experiments:
Conditions in all cases: Hippocampus
[1] = target: High-affinity choline transporter 1 (Rattus norvegicus) (UniProt Q9JMD7); assay: Effect on uptake amount of [3H]choline in the hippocampal synaptosomes of AF64A-treated rats at a concentration of 10e-6 M.
[2] = target: High-affinity choline transporter 1 (Rattus norvegicus) (UniProt Q9JMD7); assay: Effect on uptake amount of [3H]choline in the hippocampal synaptosomes of AF64A-treated rats at a concentration of 10e-5 M.
[3] = target: High-affinity choline transporter 1 (Rattus norvegicus) (UniProt Q9JMD7); assay: Effect on uptake amount of [3H]choline in the hippocampal synaptosomes of AF64A-treated rats at a concentration of 10e-7 M.

Chain of High-affinity choline transporter 1 (Rattus norvegicus) (Q9JMD7 whole entry, looked up): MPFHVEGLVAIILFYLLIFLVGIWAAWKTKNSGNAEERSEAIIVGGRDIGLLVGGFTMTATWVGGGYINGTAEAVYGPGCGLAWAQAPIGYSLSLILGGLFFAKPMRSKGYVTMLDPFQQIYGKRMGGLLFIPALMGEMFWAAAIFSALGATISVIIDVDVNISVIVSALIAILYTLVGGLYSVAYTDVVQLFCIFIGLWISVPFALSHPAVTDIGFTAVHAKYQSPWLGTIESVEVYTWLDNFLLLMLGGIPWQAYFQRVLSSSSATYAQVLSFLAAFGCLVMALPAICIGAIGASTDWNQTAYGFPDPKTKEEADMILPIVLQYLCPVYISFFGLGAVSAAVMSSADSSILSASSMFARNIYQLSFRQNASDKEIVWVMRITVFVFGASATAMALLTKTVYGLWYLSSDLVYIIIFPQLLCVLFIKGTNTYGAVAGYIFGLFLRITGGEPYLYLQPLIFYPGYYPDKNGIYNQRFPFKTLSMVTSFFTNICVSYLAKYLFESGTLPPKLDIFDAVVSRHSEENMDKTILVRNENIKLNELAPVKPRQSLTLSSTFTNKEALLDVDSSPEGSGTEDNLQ

SMILES: O=C(CN1CCCCC1=O)Nc1c2c(nc3ccccc13)CCCC2
HACU improvement [1]: 2% | HACU improvement [2]: 5% | HACU improvement [3]: -3%

SMILES: O=C(Cn1ccnc1)Nc1c2c(nc3ccccc13)CCCC2
HACU improvement [1]: 14% | HACU improvement [2]: 48% | HACU improvement [3]: 6%

SMILES: O=C(CN1CCCC1)Nc1c2c(nc3ccccc13)CCCC2
HACU improvement [1]: -20% | HACU improvement [2]: -71% | HACU improvement [3]: 1%

SMILES: O=C(CN1CCNC1=O)Nc1c2c(nc3ccccc13)CCCC2
HACU improvement [1]: 1% | HACU improvement [2]: 25% | HACU improvement [3]: 6%

SMILES: Nc1c2c(nc3ccccc13)CCCC2
HACU improvement [1]: 8% | HACU improvement [2]: -13% | HACU improvement [3]: 8%

SMILES: O=C1CN(CC(=O)Nc2c3c(nc4ccccc24)CCCC3)C(=O)N1
HACU improvement [1]: 11% | HACU improvement [2]: 10% | HACU improvement [3]: 15%

SMILES: O=C(CN1C(=O)CNC1=O)Nc1c2c(nc3ccccc13)CCCC2
HACU improvement [1]: 0% | HACU improvement [2]: 16% | HACU improvement [3]: -5%

SMILES: CC(NCC(=O)Nc1c2c(nc3ccccc13)CCCC2)C(=O)O (stereo not given)
HACU improvement [1]: 6% | HACU improvement [2]: 13% | HACU improvement [3]: -7%

SMILES: O=C(O)CNCC(=O)Nc1c2c(nc3ccccc13)CCCC2
HACU improvement [1]: -2% | HACU improvement [2]: 27% | HACU improvement [3]: -4%

SMILES: CC1C(=O)NC(=O)N1CC(=O)Nc1c2c(nc3ccccc13)CCCC2 (stereo not given)
HACU improvement [1]: 2% | HACU improvement [2]: 11% | HACU improvement [3]: 4%

SMILES: O=C(CN1CCCC1=O)Nc1c2c(nc3ccccc13)CCCC2
HACU improvement [1]: 14% | HACU improvement [2]: 13% | HACU improvement [3]: 17%

The remaining lines, values ahead:

HACU improvement [1]: 5% | HACU improvement [2]: 2% | HACU improvement [3]: 11%
SMILES: CCCCCC(=O)Nc1c2c(nc3ccccc13)CCCC2

HACU improvement [1]: 9% | HACU improvement [2]: 15% | HACU improvement [3]: 12%
SMILES: CC(C)C(=O)Nc1c2c(nc3ccccc13)CCCC2

HACU improvement [1]: -10% | HACU improvement [2]: -11% | HACU improvement [3]: -12%
SMILES: CC(=O)Nc1c2c(nc3ccccc13)CCCC2

HACU improvement [1]: -1% | HACU improvement [2]: 18% | HACU improvement [3]: -2%
SMILES: CCCCC(=O)Nc1c2c(nc3ccccc13)CCCC2

HACU improvement [1]: 24% | HACU improvement [2]: 28% | HACU improvement [3]: 13%
SMILES: CCCC(=O)Nc1c2c(nc3ccccc13)CCCC2

HACU improvement [1]: -22% | HACU improvement [2]: 0% | HACU improvement [3]: 4%
SMILES: CC(C)CC(=O)Nc1c2c(nc3ccccc13)CCCC2

HACU improvement [1]: 18% | HACU improvement [2]: 21% | HACU improvement [3]: 8%
SMILES: CNCC(=O)Nc1c2c(nc3ccccc13)CCCC2

HACU improvement [1]: 1% | HACU improvement [2]: 3% | HACU improvement [3]: 3%
SMILES: CCC(=O)Nc1c2c(nc3ccccc13)CCCC2

HACU improvement [1]: -13% | HACU improvement [2]: -7% | HACU improvement [3]: 0%
SMILES: CN(C)CC(=O)Nc1c2c(nc3ccccc13)CCCC2

Source: ChEMBL document CHEMBL1152067, “Design and syntheses of 4-acylaminopyridine derivatives: Novel high affinity choline uptake enhancers I” (Bioorg Med Chem Lett, 1995)
